Measurements reported in patent publication US9163240B2, “SR-BI mutation as a predictor of low progesterone levels and poor fetal viability during pregnancy” (The Johns Hopkins University, priority 2009, dated 2015).

Tests used:
female knockout mice = conditions: probucol added in the chow diet; cited from earlier work
HGL5 cells = assay: Progesterone secretion in HGL5 granulosa cells (RIA); assay type: cell-based, human; conditions: for rescue of impaired progesterone secretion in SR-BI KD cells: SR-BI KD cells incubated with the agent

With `CC(C)(Sc1cc(C(C)(C)C)c(O)c(C(C)(C)C)c1)Sc1cc(C(C)(C)C)c(O)c(C(C)(C)C)c1` [probucol] as the compound, how does the “fertility of SR-BI knockout female mice” value (female knockout mice) read?
Its value is “restored”.

With `CC(C)CCC(O)[C@@H](C)[C@H]1CC[C@H]2[C@@H]3CC=C4C[C@@H](O)CC[C@]4(C)[C@H]3CC[C@]12C` (stereo partly shown) [22-OH cholesterol, 22-hydroxycholesterol] as the compound, how does the “rescue of impaired progesterone secretion in SR-BI KD cells” value (HGL5 cells) read?
The value was “did not overcome this impairment”.

With `CCCC(=O)Nc1ncnc2c1ncn2[C@@H]1O[C@@H]2COP(=O)(O)O[C@H]2[C@H]1OC(=O)CCC` [dibutryl cAMP] as the compound, how does the “rescue of impaired progesterone secretion in SR-BI KD cells” value (HGL5 cells) read?
Its value is “did not overcome the defect”.

Which “progesterone secretion higher as compared with DMSO” value (HGL5 cells; scrambled cells, 24 h, Fo 10 μM, serum 10%, HDL or LDL 50 μg protein/ml, p<0.001) does the source give for `C=C[C@@]1(C)CC(=O)[C@]2(O)[C@@]3(C)[C@@H](O)CCC(C)(C)[C@@H]3[C@H](O)[C@H](OC(C)=O)[C@@]2(C)O1` [Fo, Forskolin] here?
The value was > 2 fold.
